Test results published in patent US9850276B2, “Bidentate-binding modulators of LRRK2 and JNK kinases” (THE SCRIPPS RESEARCH INSTITUTE, priority 2013, dated 2017).

Columns and labels:
H9c2 cells [1] = experiment: ROS generation under H2O2 oxidative stress; format: cell-based; details: 25 μM H2O2 + 500 nM SR-3306
Description: (§1) To test whether JNK mitochondrial localization had effects on mitochondrial function we measured the impact of Tat-Sab, and a small molecule JNK inhibitor, SR-3306 (commercially available from Calbiochem), on ROS generation and mitochondrial membrane depolarization in H9c2 cells treated with H2O2. The ROS fluorescence/cell in the absence of oxidative stress (PBS), was compared to treatment with either 25 μM H2O2, or 25 μM H2O2+500 nM SR-3306, or 25 μM H2O2+3 μM Tat-scramble peptide, or 25 μM H2O2+3 μM Tat-Sab peptide.

H9c2 cells [2] = experiment: Cell viability under oxidative stress (Cell-Titer Glo luminescent assay); format: cell-based; details: 25 μM H2O2 + 500 nM SR-3306
Description: (§2) A similar effect was seen when mitochondrial membrane potential was measured by Rhodamine 123 detection. […] Similarly, both ROS generation and membrane depolarization effects elicited by oxidative stress in H92c cells were blocked by inhibition of JNK with the small molecule, SR-3306 (commercially available from Calbiochem). Finally, the effect of SR-3306 or Tat-Sab on cell viability in response to oxidative stress was measured by a Cell-Titer Glo luminescent assay. H9c2 cells treated with 25 μM H2O2 were ˜40% viable, whereas addition of 500 nM SR-3306 to cells treated with 25 μM H2O2 increased viability to ˜80%, and addition of 3 μM Tat-Sab peptide to cells treated with 25 μM H2O2 increased viability to ˜65% compared to 95% viable in untreated cells.

H9c2 cells [3] = experiment: Mitochondrial membrane potential under H2O2 (Rhodamine 123 detection); format: cell-based; details: 25 μM H2O2
Description: as §1, §2

[4] = test system: infarct size in rat hearts; experiment: I/R MI rat model, 30 minutes ischemia and 24 hours reperfusion; format: in vivo; details: 5 mg/kg SR-3306; anesthetized rats; p<0.05
Description: The in vivo efficacy of SR-3306 in anesthetized rats after 30 minutes ischemia and 24 hours reperfusion was evaluated.

[5] = test system: cardiomyocyte apoptosis and infarct size; details: rats; cited from earlier work

| Structure (SMILES) | reduction of ROS generation compared to 25 μM H2O2 treatment (H9c2 cells [1]) [fold] | cell viability (H9c2 cells [2]) [%] | mitochondrial membrane potential perturbation / depolarization (H9c2 cells [3]) | infarct size (IS) [4] | cardiomyocyte apoptosis and infarct size after I/R [5] |
| --- | --- | --- | --- | --- | --- |
| Cc1ccc(-c2ncn(-c3ccc(Nc4nccc(-c5cccc(N6CCOCC6)c5)n4)cc3)n2)cn1 [SR-3306] | ~2 | ~80 | blocked | 23±3.5 % of AAR |  |
| N#CC(c1ccnc(NCCc2cccnc2)n1)c1nc2ccccc2s1 (centres unmarked) [AS601245] |  |  |  |  | decreased cardiomyocyte apoptosis and infarct size |
